Data taken from patent US11098045B2, “Haloallylamine indole and azaindole derivative inhibitors of lysyl oxidases and uses thereof” (PHARMAXIS LTD., priority 2016, dated 2021).
Counter-ions that a name gives are not always drawn.

Key:
[1] = test system: Fibroblasts from confirmed cases of IPF; assay: In vitro fibroblastic foci model of IPF, collagen cross-link formation; type: cell-based; details: six weeks culture with TGF-β1; FIGS. 7a and 7b
From the text: Reduction of Collagen Cross-Link Formation in an In Vitro Fibroblastic Foci Model of IPF
The lung tissue of patients with idiopathic pulmonary fibrosis (IPF) is characterised by dense collections of myofibroblasts and extracellular matrix (ECM) termed ‘fibroblastic foci’. Using a novel in vitro model of fibroblastic foci (Jones et al., AJRCCM 191; 2015:A4912) the formation of lysyl oxidase (LOX) mediated collagen cross-links and the effects of the non-selective LOX inhibitor β-aminopropionitrile (BAPN) as well lysyl oxidase like-2 (LOXL2)-selective inhibitors were investigated.
Cultures of primary fibroblasts were grown out from clinical diagnostic biopsies of fibrotic lung and stored in liquid nitrogen. […]
To quantify collagen cross-links (Robins Biochem Soc Trans 2007; 35(5): 849-852; Saito et al Anal. Biochem. 1997; 253: 26-32; Sims, Avery & Bailey Methods in Molecular Biology 2000; vol 139: 11-26), cultures were treated with potassium borohydride to stabilise the reducible immature cross-links, and hydrolysed in 6N HCl at 100° C. for 16 hr. Total collagen content was assessed by hydroxyproline assay. Immature cross-links were assessed by LC/MS/MS and mature pyridinoline cross-links by ELISA. Cross-link data is expressed as moles of cross-link per mole collagen. […]

[2] = test system: Bleomycin induced lung fibrosis; assay: Bleomycin induced lung fibrosis model; type: in vivo; details: mouse, intranasal bleomycin; 15 mg/kg
Experimental: Inhibition of Bleomycin Induced Lung Fibrosis
Bleomycin induced lung fibrosis in rodents is a widely accepted experimental model to determine the anti-fibrotic activity of therapeutic agents.
Fibrosis is induced by intranasal administered of bleomycin sulphate at a dose of 0.05 U/mouse in a total volume of 50 uL PBS (see Corbel, M., et al Inhibition of bleomycin-induced pulmonary fibrosis in mice by the matrix metalloproteinase inhibitor batimastat J Pathol. 2001 April; 193(4):538-45.) Compound 12 is given 0.1-100 mg/Kg throughout the period of the experimental procedure or 7 days after bleomycin administration and then throughout the entire study.
Formalin fixed lungs sections stained with haematoxylin and eosin are assessed for fibrosis as per the scale outlined by Ashcroft et al (Simple method of estimating severity of pulmonary fibrosis on a numerical scale J Clin Pathol 1988; 41:467-470).

[3] = test system: Streptozotocin induced diabetic nephropathy; assay: Streptozotocin induced diabetic nephropathy model; type: in vivo, mouse; details: diabetic eNOS knockout mice, 24 weeks treatment, 0.1-100 mg/Kg
From the text: Inhibition of Streptozotocin Induced Diabetic Nephropathy
Streptozotocin (STZ)-induced diabetic nephropathy is commonly used for creating rodent models of type 1 diabetes which develop renal injury, due to pancreatic cell damage with similarities to human diabetic nephropathy.
This model can be established for investigating anti-fibrotic effects of compounds in the development of kidney fibrosis.
Diabetes is induced in eNOS knockout mice on C57BL/6 background by intraperitoneal STZ injection (55 mg/kg in 0.1 M citrate buffer) in mice of 6-9 weeks of age (see Huang C et al, Blockade of KCa3.1 ameliorates renal fibrosis through a TGF-b1/Smad pathway in diabetic mice. Diabetes, 2013 62(8):2923-2934).
Blood sugar level (BSL) is determined by tail vein blood. Mice with BSL>16 mmol/L two weeks post STZ injection are considered diabetic. Treatment with Compound 12 is carried out for 24 weeks from diagnosis of diabetes at a dose of 0.1-100 mg/Kg.

[4] = test system: CCl4 induced liver fibrosis; assay: CCl4 induced liver fibrosis model; type: in vivo, rat; details: rats, oral CCl4 for 6 weeks; 0.1-100 mg/Kg; compared with vehicle-treated group
Experimental: Inhibition of CCl4 Induced Liver Fibrosis
An analysis of the use of LOXL2 inhibitors to treat inflammatory/fibrotic diseases is performed through the use of a CCl4 induced liver fibrosis model. Liver injury is frequently followed by complete parenchymal regeneration due to regenerative potency of hepatocytes. Continuous liver injury due to the administration of CCl4 leads to extracellular matrix accumulation, accompanied by recurrent hepatocyte necrosis, inflammation, and regenerative processes, causing liver fibrosis and consequently liver cirrhosis (see Natsume, M., et al., Attenuated liver fibrosis and depressed serum albumin levels in carbon tetrachloride-treated IL-6-deficient mice. J. Leukoc. Biol., 1999, 66, 601-608 also See Yao, Q. Y., et al. Inhibition by curcumin of multiple sites of the transforming growth factor-beta1 signalling pathway ameliorates the progression of liver fibrosis induced by carbon tetrachloride in rats. BMC Complement Altern Med. 2012 Sep. 16; 12(1):156.)
Rats are administered orally with CCl4 at a concentration of 0.25 μL/g in olive oil, 3 times per week for 6 weeks. Compound 25 is given 0.1-100 mg/Kg throughout the period of the experimental procedure or only 3 weeks after CCl4 administration and then throughout the entire study. […]

[5] = test system: Myocardial infarction induced fibrosis; assay: Myocardial infarction induced fibrosis model; type: in vivo, mouse; details: mice, 0.1-100 mg/Kg once a day by oral gavage; FIG. 5
From the text: Inhibition of Myocardial Infarction Induced Fibrosis
Carotic ligation is a widely accepted experimental model to induce cardiac fibrosis and to determine the anti-fibrotic activity of therapeutic agents.
In mice, the chest is opened via a left thoracotomy. The left coronary artery is identified visually using a stereo microscope, and a 7-0 suture is placed around the artery 1-2 mm below the left auricle. Permanent occlusion of the left coronary artery resulted from its ligation with the suture. Myocardial ischemia was confirmed by pallor in heart color and ST-segment elevation. (see Parajuli et al. Phosphatase PTEN is critically involved in post-myocardial infarction remodeling through the Akt/interleukin-10 signaling pathway Basic Res Cardiol (2012) 107:248).
Mice were subjected to sham or carotic ligation surgery. At 24 hrs post-surgery, echocardiography was performed on the mice. Mice were treated with compound 25 0.1-100 mg/Kg once a day for 21 (7 days after carotic ligation) or 28 days or saline as vehicle controls by oral gavage. At the end of the experiment, echocardiography was repeated to assess left ventricular function and remodeling. Then mice were euthanized for heart collection. Each heart was photographed and fixed with 10% formalin. Hearts were sectioned for Masson's trichrome stain to measure fibrosis (See FIG. 5).

[6] = test system: Streptozotocin and high fat diet induced liver fibrosis; assay: Streptozotocin and high fat diet induced liver fibrosis (STAM model); type: in vivo, mouse; details: STAM mice, daily oral gavage 10-30 mg/kg; FIG. 6
Experimental: Streptozotocin and High Fat Diet Induced Liver Fibrosis
High fat/carbohydrate diet induced liver fibrosis is the most common reason for liver dysfunction and ultimately liver failure. NASH is induced in male mice by a single subcutaneous injection of 200 μg streptozotocin solution 2 days after birth and feeding with high fat diet after 4 weeks of age (STAM™ model).
LOXL2 inhibitor compound 112 was administered by daily oral gavage at doses between 10-30 mg/kg 8 weeks after streptozotocin application. Mice were sacrificed after NASH had been established and whole blood samples were taken via cardiac puncture. Liver samples were collected and washed with cold saline. Liver weight was measured. The left lateral, right and caudate lobes of livers were snap frozen in liquid nitrogen and stored at −80° C. For HE staining, sections were cut from paraffin blocks of liver tissue prefixed in Bouin's solution and stained with Lillie-Mayer's Hematoxylin and eosin solution. NAFLD Activity score (NAS) was calculated according to the criteria of Kleiner (Kleiner D E. et al., Design and validation of a histological scoring system for nonalcoholic fatty liver disease. Hepatology, 2005; 41:1313). To visualize collagen deposition, Bouin's fixed liver sections were stained using picro-Sirius red solution and the area of fibrosis was quantified (See FIG. 6).

Structure (SMILES): N#CCCN [BAPN, β-aminopropionitrile, reference compound]
- collagen cross-link formation (immature and mature cross-links) [1]: reduced cross-link formation in a concentration dependent manner

Structure (SMILES): CCOC(=O)c1ccc2c(c1)c(-c1cccc(S(=O)(=O)N(C)C)c1)c(C)n2C/C(F)=C/CN [Compound 12, (Z)-ethyl 1-(4-amino-2-fluorobut-2-en-1-yl)-3-(3-(N,N-dimethylsulfamoyl)phenyl)-2-methyl-1H-indole-5-carboxylate]
- Ashcroft score in the lungs [2]: significantly reduced this score
- kidney function by albumin/creatinine ratio quantification [3]: significant improvement in kidney function
- reduction of fibrosis by Masson's Trichrome staining ([3]; compared with vehicle-treated group): up to 50%

Structure (SMILES): Cc1c(-c2cccc(S(=O)(=O)N(C)C)c2)c2ncccc2n1C/C(F)=C/CN [Compound 25, (Z)-3-(1-(4-amino-2-fluorobut-2-en-1-yl)-2-methyl-1H-pyrrolo[3,2-b]pyridin-3-yl)-N,N-dimethylbenzenesulfonamide Dihydrochloride]
- reduction of fibrosis in the liver by sirius red staining with quantification [4]: up to 50%
- fibrosis after ligation (Masson's trichrome stain) [5]: reduce fibrosis

Structure (SMILES): Cc1ccc2c(n1)c(-c1cccc(S(C)(=O)=O)c1)c(C)n2C/C(F)=C/CN [Compound 112, (Z)-4-(2,5-dimethyl-3-(3-(methylsulfonyl)phenyl)-1H-pyrrolo[3,2-b]pyridin-1-yl)-3-fluorobut-2-en-1-amine Dihydrochloride]
- liver fibrosis (picro-Sirius red area of fibrosis) [6]: reduce liver fibrosis
- collagen cross-link formation (immature and mature cross-links) [1]: reduced cross-link formation in a concentration dependent manner
